The values below come from patent US9452119B2, “Nitrone compounds and their use in personal care” (Dow Global Technologies LLC, priority 2011, dated 2016).

Data set [1] in a line: Oxygen Radical Absorbance Capacity (ORAC) antioxidant potential. More on the design: unit not given here. The settings on record: calculated from ORAC values (AUC minus blank); Trolox as internal control. The protocol: Antioxidant potential is evaluated using the Oxygen Radical Absorbance Capacity (ORAC) protocol. ORAC is a chemical in-vitro method based on the hydrogen atom transfer (HAT) mechanism. ORAC measures antioxidant inhibition of peroxyl radical induced oxidations and thus reflects classical radical chain breaking antioxidant activity by H atom transfer. In this assay, the peroxyl radical reacts with a fluorescent probe to form a non-fluorescent product. This is quantitated using a fluorescence measurement. Antioxidant capacity is determined by decreased rate and amount of product formed over time. This assay depends upon the free radical damage to the fluorescent probe resulting in the change in its fluorescence intensity. The change of fluorescence intensity is an indicator of the degree of free radical damage. In the presence of an antioxidant, the inhibition of free radical damage is reflected in higher fluorescence intensity and can be measured as antioxidant capacity against the free radicals. The uniqueness of ORAC assay is that the reaction is driven to completion. This allows calculation of the area under the curve (AUC) and gives an absolute quantitation of antioxidancy as opposed to relative measurements in many other assays.
As noted, the longer it takes to observe a decrease in fluorescence, the higher the antioxidant (AO) potential. From the AUC for a given antioxidant, the AUC for blank is subtracted to give its ORAC value. The concentration of AO needed to give the same AUC values as Trolox is calculated and used to represent the Trolox equivalent AO Capacity (TEAC). Trolox is ((±)-6-Hydroxy-2,5,7,8-tetramethylchromane-2-carboxylic acid, CAS #53188-07-1), and is used as an internal control.
The ORAC test is conducted in the compounds of Examples 1-5 (inventive compounds) as well as to Vitamin C, Vitamin E, and the following comparative compounds:
The TEAC values calculated from the ORAC values are listed the Table 2.

The next data set deals with Type I collagen. The experiment in a line: AAPH radical induced collagen degradation, SDS-PAGE of remaining γ-chain. In kind it is biochemical. The settings on record: incubated with AAPH at 50° C. for 90 mins; antioxidants at same concentration; FIG. 1. The protocol:
Type I collagen, typically found in abundance in skin, is dissolved in 0.04 M acetic acid, pH 4.3, prior to different treatments. For radical induced collagen degradation, aqueous radical initiator 2,2′-azobis-2-methyl-propanimidamide dihydrochloride (AAPH) is used. The collagen samples are incubated with AAPH in the presence of VAN-IPHA (Example 3), pHBz-IPHA (Example 6), and vitamin E (comparative) of the same concentration to determine the efficacy of these antioxidants in preventing collagen degradation. After incubation at 50° C. for 90 mins, the collagen samples are analyzed by SDS-PAGE to determine the degree of degradation by the remaining amount of γ-chain, which is a covalently cross-linked trimer for collagen.

Another data set has as its system collagen. The experiment in a line: UVA-induced collagen degradation, SDS-PAGE / densitometry of collagen γ-bands. In kind it is biochemical. The settings on record: antioxidant at 238 μM, UVA irradiation, FIG. 3. The protocol: FIG. 3 is a densitometry plot of collagen γ-bands on SDS-PAGE of samples containing antioxidant at concentration of 238 μM.
In addition to the oxidative stress due to radical and ROS generation, oxidative damage to collagen can also be induced by UVA irradiation. Similar to the radical-induced collagen degradation, the effect of UVA in collagen degradation is mitigated by the presence of nitrones.
Similar to the prevention of radical-induced degradation, better efficacy in the inhibitory effect of preventing UVA-induced degradation is also observed for VAN-IPHA (FIG. 3). In this analysis, the effects of VAN-IPHA and pHBz-IPHA are compared to a highly efficacious antioxidant, Resveratrol. […] The stability of nitrones of the invention provide an advantageous alternative solution for antioxidant needs in cosmetic applications, such as anti-aging.

`CC(C)/[N+]([O-])=C/c1ccccc1O` [SAL-IPHA, (Z)-N-(2-hydroxybenzylidene)propan-2-amine oxide]: in data set [1], the “TEAC (Trolox equivalent AO Capacity)” value is recorded as 3.02. Same read-out and setting: in the case of `O=C1O[C@H]([C@@H](O)CO)C(O)=C1O` [Vitamin C, reference compound] it was 0.76; in that of Vitamin E [reference compound], 0.13; in that of `Cc1cc(C(C)(C)C)c(O)c(C(C)(C)C)c1` [BHT, reference compound], 0.11-0.21. The same measure, in the same setting: in the case of `COc1cc(/C=[N+](\[O-])C(C)(C)C)ccc1O` [VAN-tBHA, (Z)-N-(4-hydroxy-3-methoxybenzylidene)-2-methylpropan-2-amine oxide] it was 4.42.

`COc1cc(/C=[N+](\[O-])C(C)C)ccc1O` [VAN-IPHA, (Z)-N-(4-hydroxy-3-methoxybenzylidene)propan-2-amine oxide]: the melting point lay within 178 to 180 °C. Also, in the data set on Type I collagen, the “extent of collagen degradation (remaining γ-chain)” value is on record as “significantly less”. Further, the “TEAC (Trolox equivalent AO Capacity)” value in data set [1] is 5.41. The “inhibitory effect of preventing UVA-induced collagen degradation” value in the data set with collagen was “better efficacy than Resveratrol”. In the case of `CCCC/C=[N+](\[O-])C(C)C` [VAL-IPHA, reference compound], in data set [1], the “TEAC (Trolox equivalent AO Capacity)” value was 0.18. With `Cc1cc(/C=[N+](\[O-])C(C)C)cc(C)c1O` [DMHBz-IPHA, (Z)-N-(4-hydroxy-3,5-dimethylbenzylidene)propan-2-amine oxide], the “TEAC (Trolox equivalent AO Capacity)” value in data set [1] was 1.56.

Regarding `CC(C)(C)/[N+]([O-])=C/c1ccccc1` [PBN, reference compound], the “TEAC (Trolox equivalent AO Capacity)” value in data set [1] is reported as 0.04.

Consider `CC(C)/[N+]([O-])=C/c1ccc(O)cc1` [pHBz-IPHA, (Z)-N-(4-hydroxybenzylidene)propan-2-amine oxide], for which the melting point was in the range of 217 to 218 °C. The “TEAC (Trolox equivalent AO Capacity)” value in data set [1] is given as 8.67.
